Data on six compounds can be found in patent US3959359A, “Phenoxyalkylamines, process for their preparation and therapeutical composition containing same” (priority 1968, dated 1976).

Read-outs that look alike come from different tables or passages of the source.

The test system of data set [1] is rat uterus (uterine cornuae). Description: Uterine relaxant activity, inhibition of spontaneous contractions of the isolated uterus (De Jalon method). Set-up: species or system rat (Sprague Dawley). The note with it: 0.5 γ/ml of bath; for uterine relaxant effect: in words. As to the method:
The study was conducted on rat uterus, using the following compounds:
The conventional method of De Jalon, Bayo and De Jalon (1945). Farmacoter. act. 3, 313 -- also reported in the book : "Pharmacological Experiments on Isolated Preparations" by the staff of the Department of Pharmacology, University of Edinburgh, published by E. & S. Livingstone Ltd, London -- was used, the pharmacological investigation being conducted on the uterine cornuae of female rats (Sprague Dawley strain) kept alive in a survival liquid.
A tank containing Tyrode's solution is maintained at a constant temperature of 32°C. The test organ is suspended to a strain gauge for the purpose of recording the contractions on a potentiometric recorder. The uterine cornuae are taken from non-gravid puberal female rats having an average weight of 160 g.
The day prior to the test, the animals are administered a di-ethyl-stilboestrol injection. Postmortem, the cornuae are isolated as rapidly as possible and a 15 mm fragment from which the connective tissue has been removed is placed in the experimental cell.
During oestrum, regular spontaneous contractions (FIG. 1) are noted; such oscillations are stable within 30-60 minutes, after washing several times with suitably oxygenated Tyrode's solution.
Addition to the bath of uterine relaxant material produces, at a low dosage, a total inhibition of such spontaneous contractions.

Another data set deals with duodenum of rats. Description: Beta-stimulant action, inhibition of acetylcholine-induced contraction of isolated duodenum. Set-up: species or system rat (Sprague Dawley). Conditions: 0.1 γ/ml of bath; for % Inhibition of cholinergic contraction (beta-stimulant action): acetylcholine 0.1 γ/ml; for beta-stimulant action: in words. As to the method:
A comparison was made of the beta-stimulant action of the same compounds as used in the above experiment.
The duodenum of rats (Sprague Dawley strain) weighing about 150 g is taken immediately post-mortem. The test organ is immediately placed in a suitable cell for the isolated organ (oxygenated Tyrode's solution maintained at a temperature of 37°C).
Addition of acetylcholine (0.1 γ/ml) to the bath induces a contraction of the organ which is immediately transmitted via a strain gauge to a potentiometric recording device.
Addition of a beta-stimulant material causes inhibition of this […].
A comparison was made between the actions of various materials on cholinergic contractions.

Data set [2] concerns isolated heart (coronary rate of flow). Description: Coronary dilator activity, Langendorff's method on the isolated heart. Set-up: species or system rabbit (Fauve de Bourgogne); ED 50: unit not given beside the values. Conditions: for activation at 0.005 mg: 5 γ injected; for activation at 0.01 mg: 10 γ injected; for activation at 0.02 mg: 20 γ injected; for activation at 0.04 mg: 40 γ injected; for activation at 0.08 mg: 80 γ injected; for ED 50: 50% increase of original coronary rate of flow; for activation at 0.16 mg: 160 γ injected; for activation at 0.025 mg: 25 γ injected; for activation at 0.05 mg: 50 γ injected. As to the method:
The coronary dilator activity was studied according to Langendorff's method on the isolated heart.
The tests were carried out on the hearts of young Fauve de Bourgogne (about 1.5 kg) rabbits. The hearts were rapidly taken out and maintained in surviving condition by perfusion of a physiological (Tyrode type) liquid heated at 37°C and oxygenated under a constant pressure of 50-60 cm of water. The heart was perfused countercurrently.
Volumetric determinations of the coronary rate of flow were then recorded at thirty second intervals.
After stabilization of the basic rate of flow, the test compound, dissolved in physiological saline solution, was injected in the perfusion liquid, in a volume of from 0.05 to 0.2 ml.
In the same heart, increasing dosages of all three compounds were tested by injecting alternatively a predetermined dose for each one of the three compounds.
Each injection was made 4-5 minutes after a stable rate of flow was attained.
The tests were carried out as above with three rabbits.

A further data set deals with patients. The data set is described as follows: Clinical experiments in patients with anginose states or ischemic diseases of the heart. It counts as in vivo, human. How it is done:
The compound prepared in example 4 (1-(1-hydroxypropyl)-4-[2-(1-methyl-phenethylamino)-ethoxy]-benzene hydrochloride) was experimented in four different Cardiology Services. 211 patients were treated with this compound. These patients suffered from different anginose states or from ichemic diseases of the heart (coronary failures or after-effects of infarct). […] Therefore the tolerance is excellent.

Another data set has as its system beta receptor. The note with it: International Conference on Duvadilan, May 1962; cited from earlier work.
The conditions of data set [3]: cited from earlier work.
The conditions of data set [4]: compared to Isoxsuprine; cited from earlier work.
The subject of another data set is uterus. Conditions: in words; cited from earlier work.
[5] abbreviates: Oryctolagus cuniculus, Table I, heart A, read-out: increase of coronary rate of flow.
Where [6] appears, read: Oryctolagus cuniculus, Table I, heart B, read-out: increase of coronary rate of flow.
[7] abbreviates: Oryctolagus cuniculus, Table II, heart No. 1, read-out: increase of coronary rate of flow.
Where [8] appears, read: Oryctolagus cuniculus, Table II, heart No. 2, read-out: increase of coronary rate of flow.
[9] abbreviates: Oryctolagus cuniculus, Table II, heart No. 3, read-out: increase of coronary rate of flow.

In the case of `CC(COc1ccccc1)NC(C)C(O)c1ccccc1` (centres unmarked) [Compound D, reference compound], in data set [1], the “% Inhibition of spontaneous uterine contractions” value is given as 70% and the uterine relaxant effect entry is “reduced uterine relaxant effect”. Besides, in the data set on duodenum of rats, the “% Inhibition of cholinergic contraction (beta-stimulant action)” value (shortened to “% Inhibition of cholinergic contraction”) stood at 100% and the beta-stimulant action entry is given as “highly beta-stimulant action”.
With `CCC(=O)c1ccc(OCCNC(C)Cc2ccccc2)cc1` (centres unmarked) [Example 1, 4-[2-(1-methyl-phenethylamino)-ethoxy]-propiophenone], in data set [2] (setting [5]), the activation at 0.005 mg came to 12%, the activation at 0.01 mg was 34%, the activation at 0.02 mg was found to be 47% and the activation at 0.04 mg amounted to 50%. The activation at 0.08 mg in data set [2] (setting [5]) is 80.5%. Further, in data set [2] (setting [6]), the activation at 0.01 mg came out at 8%, the activation at 0.02 mg is 37%, the activation at 0.04 mg is 50% and the activation at 0.08 mg turned out to be 62%. The “ED 50” value in data set [2] (Table I, heart A) is 27 γ. Further, in data set [2] (Table I, heart B), the “ED 50” value was 44 γ. Also, in data set [1], the “% Inhibition of spontaneous uterine contractions” value is on record as 0% and the uterine relaxant effect result is listed as “absolutely no uterine relaxant effect”. In the data set on duodenum of rats, the “% Inhibition of cholinergic contraction” value worked out at 15% and the beta-stimulant action entry is recorded as “only a slight beta-stimulant effect”.
`CCC(O)c1ccc(OCCNC(C)Cc2ccccc2)cc1` (centres unmarked) [Example 4, 1-(1-hydroxy-propyl)-4[2-(1-methyl-phenethylamino)-ethoxy]-benzene]: in the data set with patients (211 patients), the contra-indication result is on record as “no contra-indication”; the “modification of cardiac frequency and arterial pressure” value was “no modification of the cardiac frequency and of the arterial pressure”; the tolerance entry is recorded as “excellent”. In the data set with patients (211 patients treated), the “favourable results (number of patients)” value is recorded as 172 patients and the “favourable results (share of patients)” value was 81.5%. Besides, the activation at 0.002 mg in data set [2] (Oryctolagus cuniculus, Table I, heart A, 2 γ injected, read-out: increase of coronary rate of flow) is 10%. In addition, in data set [2] (setting [5]), the activation at 0.005 mg came out at 30%, the activation at 0.01 mg was determined as 33%, the activation at 0.02 mg turned out to be 67% and the activation at 0.04 mg was found to be 93%. Further, in data set [2] (setting [6]), the activation at 0.01 mg is 11%, the activation at 0.02 mg was determined as 30%, the activation at 0.04 mg is 55% and the activation at 0.08 mg is 78%. In data set [2] (setting [7]), the activation at 0.04 mg was 33%, the activation at 0.08 mg worked out at 54% and the activation at 0.16 mg turned out to be 78%. Also, in data set [2] (setting [8]), the activation at 0.01 mg worked out at 33%, the activation at 0.02 mg came to 50% and the activation at 0.04 mg came out at 80%. Moreover, in data set [2] (setting [9]), the activation at 0.02 mg came out at 17%, the activation at 0.04 mg was determined as 46%, the activation at 0.08 mg was determined as 50% and the activation at 0.16 mg amounted to 75%. For the same compound, in data set [2] (Table I, heart A), the “ED 50” value is listed as 11 γ. Also, in data set [2] (Table I, heart B), the “ED 50” value is reported as 35 γ. Moreover, in data set [1], the “% Inhibition of spontaneous uterine contractions” value amounted to 0% and the uterine relaxant effect result is listed as “absolutely no uterine relaxant effect”. Besides, in the data set with duodenum of rats, the “% Inhibition of cholinergic contraction” value turned out to be 15% and the beta-stimulant action entry is reported as “only a slight beta-stimulant effect”.
`CCCC(=O)c1ccc(OCCNC(C)Cc2ccccc2)cc1` (centres unmarked) [Example 5, 4-[2-(1-methyl-phenethylamino)-ethoxy]-butyrophenone]: in data set [2] (setting [5]), the activation at 0.01 mg is 21%, the activation at 0.025 mg was determined as 57% and the activation at 0.05 mg is 64%. For the same compound, in data set [2] (setting [6]), the activation at 0.01 mg came to 16%, the activation at 0.025 mg amounted to 39% and the activation at 0.05 mg was 50%. Further, the “ED 50” value in data set [2] (Table I, heart A) was 24 γ. Besides, the “ED 50” value in data set [2] (Table I, heart B) was 45 γ.
Consider `CC(COc1ccccc1)NC(C)C(O)c1ccc(O)cc1` (centres unmarked) [Isoxsuprine, 1-(p-hydroxyphenyl)-2-(1-methyl-2 phenoxyethylamino) propanol-1, reference compound], for which the “mechanism of uterine relaxant activity” value with beta receptor is recorded as “essentially due to beta receptor activation”. In data set [2] (setting [7]), the activation at 0.04 mg turned out to be 8%, the activation at 0.08 mg turned out to be 20% and the activation at 0.16 mg is 50%. In data set [2] (setting [8]), the activation at 0.02 mg came to 17%, the activation at 0.04 mg amounted to 43% and the activation at 0.08 mg came to 60%. For the same compound, in data set [2] (setting [9]), the activation at 0.04 mg turned out to be 0%, the activation at 0.08 mg came out at 17% and the activation at 0.16 mg stood at 33%. Further, the activation at 0.32 mg in data set [2] (Oryctolagus cuniculus, Table II, heart No. 3, 320 γ injected, read-out: increase of coronary rate of flow) was 50%. Also, the activation at 0.64 mg in data set [2] (Oryctolagus cuniculus, Table II, heart No. 3, 640 γ injected, read-out: increase of coronary rate of flow) was 75%. Moreover, in data set [3] (in view of beta-stimulant properties), the ventricular stimulability result was “increases ventricular stimulability”. In addition, the “possible occurrence of extrasystoles” value in data set [3] (particularly ventricular extrasystoles) is reported as “increases also the possible occurrence of extrasystoles”. Also, in data set [1], the “% Inhibition of spontaneous uterine contractions” value stood at 100% and the uterine relaxant effect result is on record as “total uterine relaxant action”. Also, in the data set on duodenum of rats, the “% Inhibition of cholinergic contraction” value is 100% and the beta-stimulant action entry is listed as “highly beta-stimulant action”.
With `CC(COc1ccccc1)NC(C)Cc1ccccc1` (centres unmarked) [N-(2-phenyl-1-methyl-ethyl)-2-phenoxy-1-methyl-ethylamine], the vasodilator activity result in data set [4] was “reduced vasodilator activity compared to Isoxsuprine”. Besides, the uterus relaxant activity entry in the data set on uterus is “uterus relaxants”.
